Here are results for 52 molecules from patent US7041687B2, “Indazole compounds useful as protein kinase inhibitors” (Vertex Pharmaceuticals Incorporated, priority 2002, dated 2006).

The target in assay [1] is AKT-3 (Homo sapiens, UniProt Q9Y243). Briefly: AKT-3 inhibition assay (standard coupled enzyme assay). The assay is classed as biochemical. As to conditions: 170 μM ATP, 200 μM peptide, 45 nM AKT, 30° C.
Assay [2] addresses T1, PDK-1 (Homo sapiens, UniProt O15530).
T1 sequence (O15530 1-556): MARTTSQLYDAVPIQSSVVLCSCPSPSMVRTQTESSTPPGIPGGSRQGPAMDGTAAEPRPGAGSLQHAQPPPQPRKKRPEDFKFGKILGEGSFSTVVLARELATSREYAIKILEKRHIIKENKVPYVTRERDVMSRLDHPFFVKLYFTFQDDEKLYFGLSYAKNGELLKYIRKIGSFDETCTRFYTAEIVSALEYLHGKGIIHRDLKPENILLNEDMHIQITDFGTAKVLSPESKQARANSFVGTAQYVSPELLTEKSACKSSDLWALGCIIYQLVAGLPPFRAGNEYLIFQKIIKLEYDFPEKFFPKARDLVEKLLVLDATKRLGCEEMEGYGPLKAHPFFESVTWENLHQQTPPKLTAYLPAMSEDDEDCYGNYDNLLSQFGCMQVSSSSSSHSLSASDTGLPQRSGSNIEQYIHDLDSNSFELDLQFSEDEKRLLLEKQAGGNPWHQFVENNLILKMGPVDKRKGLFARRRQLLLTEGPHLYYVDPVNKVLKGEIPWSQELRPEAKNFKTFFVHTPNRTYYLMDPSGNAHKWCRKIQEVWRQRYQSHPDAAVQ
Briefly: PDK-1 inhibition assay (radioactive-phosphate incorporation). The assay is classed as biochemical. The settings on record: 40 μM ATP, 65 μM PDKtide, 25 nM PDK-1, 30° C.

A value given as a limit tells only on which side of the number the result lay.

Sequence of AKT-3 (Q9Y243 whole entry): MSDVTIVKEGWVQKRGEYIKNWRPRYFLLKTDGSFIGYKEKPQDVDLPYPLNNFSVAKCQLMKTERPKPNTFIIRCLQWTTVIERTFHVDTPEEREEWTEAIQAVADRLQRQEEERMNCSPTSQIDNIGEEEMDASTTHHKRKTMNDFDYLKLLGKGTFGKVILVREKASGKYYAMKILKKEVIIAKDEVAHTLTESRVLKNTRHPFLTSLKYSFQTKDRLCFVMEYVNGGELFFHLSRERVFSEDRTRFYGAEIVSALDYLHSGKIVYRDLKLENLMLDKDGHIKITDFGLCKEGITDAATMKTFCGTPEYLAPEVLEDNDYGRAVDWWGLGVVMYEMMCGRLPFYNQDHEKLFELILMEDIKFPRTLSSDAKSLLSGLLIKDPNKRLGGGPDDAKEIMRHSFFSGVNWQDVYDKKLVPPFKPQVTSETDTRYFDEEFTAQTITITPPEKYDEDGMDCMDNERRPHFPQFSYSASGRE

For orientation: Ki means a dissociation constant, usually derived from enzyme kinetics or from competition with a known ligand. Regarding `NCCC(C(=O)Nc1ccc2[nH]nc(NC(=O)c3cccc(Cn4ccnc4)c3)c2c1)c1ccc(Cl)c(Cl)c1` (stereo not shown) [Compound I-217], the Ki in assay [1] is < 1 µM.
Turning to `O=C(CCC(C(=O)N1CCN(Cc2ccccc2)CC1)c1ccccc1)Nc1ccc2[nH]ncc2c1` (stereo not shown) [Compound I-1015], in assay [2], the Ki was > 3 µM.
Turning to `NCCC(C(=O)Nc1ccc2[nH]nc(-c3cccc(C(N)=O)c3)c2c1)c1ccccc1` (stereo not shown) [Compound I-248], the Ki in assay [2] was < 1 µM.
On the same count and under the same terms, next, `COc1cccc(C(CCNCc2ccccc2)C(=O)Nc2ccc3[nH]nc(C)c3c2)c1` (stereo not shown) [Compound I-1016]: > 3 µM.
With `CC(=O)c1cccc(C(=O)Nc2n[nH]c3ccc(NC(=O)C(CCN)c4ccc(Cl)c(Cl)c4)cc23)c1` (stereo not shown) [Compound I-220], in assay [1], the Ki is < 1 µM.
Consider `CN(C)CCNC(C(=O)Nc1ccc2[nH]ncc2c1)c1cccc(Cl)c1` (stereo not shown) [Compound I-62], for which the Ki in assay [1] is < 1 µM.
Regarding `CS(=O)(=O)c1cccc(C(=O)Nc2n[nH]c3ccc(NC(=O)C(CCN)c4ccc(Cl)c(Cl)c4)cc23)c1` (stereo not shown) [Compound I-221], the Ki in assay [1] was < 1 µM.
`O=C(Nc1ccc2[nH]ncc2c1)C(NCCc1ccccn1)c1cccc(Cl)c1` (stereo not shown) [Compound I-66]: the Ki in assay [1] was in the range of 10 to 20 µM.
For `O=C(Nc1ccc2[nH]ncc2c1)C(CCNCc1ccccc1)c1ccccc1F` (stereo not shown) [Compound I-1025], the inhibition constant (Ki) in assay [2] was > 3 µM.
Regarding `COc1ccc(Br)cc1CC(=O)Nc1ccc2[nH]ncc2c1` [Compound I-94], the Ki in assay [1] lay in the range of 10 to 20 µM.
In assay [1], `NCC(C(=O)Nc1cc(-c2ccccc2)c2[nH]ncc2c1)c1ccc(Cl)c(Cl)c1` (stereo not shown) [Compound I-146] registered a Ki of 10 to 20 µM.
Regarding `NCCC(C(=O)Nc1ccc2[nH]ncc2c1)c1ccccc1F` (stereo not shown) [Compound I-1032], the Ki in assay [2] was < 1 µM.
In assay [1], `N[C@H](C(=O)Nc1ccc2[nH]ncc2c1)c1ccccc1` [Compound I-49] yielded a Ki of 1 to 10 µM.
In the case of `COc1cccc(C(CCN)C(=O)Nc2ccc3[nH]nc(Nc4cccc(C(N)=O)c4)c3c2)c1` (stereo not shown) [Compound I-1030], the Ki in assay [2] is > 3 µM.
In assay [1], `CC(=O)c1n[nH]c2ccc(NC(=O)C(CN)c3ccc(Cl)c(Cl)c3)cc12` (stereo not shown) [Compound I-255] yielded a Ki of 1 to 10 µM.
In assay [1], `N[C@@H](Cc1ccc(Cl)c(Cl)c1)C(=O)Nc1ccc2[nH]ncc2c1` [Compound I-95] came in with a Ki of 10 to 20 µM.
As to `COc1ccc(C(NCCN)C(=O)Nc2ccc3[nH]ncc3c2)cc1Cl` (stereo not shown) [Compound I-71], the Ki in assay [1] lay within 1 to 10 µM.
Still for that read-out and setting: next, `O=C(Cc1ccc(Cl)cc1)Nc1ccc2[nH]ncc2c1` [Compound I-5]: 1 to 10 µM; `NCCC(C(=O)Nc1ccc2[nH]nc(NC(=O)Cc3ccccc3)c2c1)c1ccc(Cl)c(Cl)c1` (stereo not shown) [Compound I-192]: 1 to 10 µM.
Regarding `NCCC(C(=O)Nc1ccc2[nH]nc(-c3ccc(C(N)=O)cc3)c2c1)c1ccccc1` (stereo not shown) [Compound I-262], the Ki in assay [2] is < 1 µM.
For `O=C(Nc1ccc2[nH]ncc2c1)C(NCCNCc1ccccc1)c1cccc(Cl)c1` (stereo not shown) [Compound I-64], the Ki in assay [1] is < 1 µM.
For the molecule `Cc1n[nH]c2ccc(NC(=O)C(CCN)c3ccco3)cc12` (stereo not shown) [Compound I-1037], the Ki in assay [2] was > 3 µM.
Take `NCCC(C(=O)Nc1ccc2[nH]nc(-c3cccc(-c4ccccc4)c3)c2c1)c1ccc(Cl)c(Cl)c1` (stereo not shown) [Compound I-223]: the Ki in assay [1] is < 1 µM.
With `NCCNC(C(=O)Nc1ccc2[nH]ncc2c1)c1ccc(Oc2ccccc2)c(Cl)c1` (stereo not shown) [Compound I-72], the Ki in assay [1] was in the range of 1 to 10 µM.
`NCCC(C(=O)Nc1ccc2[nH]nc(NC(=O)c3cccc(CN4CCNCC4)c3)c2c1)c1ccc(Cl)c(Cl)c1` (stereo not shown) [Compound I-218]: the Ki in assay [1] is < 1 µM.
As for `Nc1n[nH]c2ccc(NC(=O)Cc3cccc(Cl)c3)cc12` [Compound I-82], the Ki in assay [1] is 10 to 20 µM.
In the case of `O=C(Nc1ccc2[nH]ncc2c1)C(NCc1ccccn1)c1cccc(Cl)c1` (stereo not shown) [Compound I-65], the Ki in assay [1] fell in the range of 10 to 20 µM.
Take `NCCC(C(=O)Nc1ccc2[nH]nc(-c3ccc(CCC(=O)O)cc3)c2c1)c1ccccc1` (stereo not shown) [Compound I-264]: the Ki in assay [2] was < 1 µM.
`NCCC(C(=O)Nc1ccc2[nH]nc(-c3ccc(Oc4ccccc4)cc3)c2c1)c1ccccc1` (stereo not shown) [Compound I-265]: the Ki in assay [2] is < 1 µM.
Molecule `NC(C(=O)Nc1ccc2[nH]ncc2c1)c1cccc(C(F)(F)F)c1` (stereo not shown) [Compound I-53] returned a Ki in assay [1] of 1 to 10 µM.
`NCCC(C(=O)Nc1ccc2[nH]nc(NC(=O)c3cccs3)c2c1)c1cccnc1` (stereo not shown) [Compound I-272]: in assay [2], the Ki was < 1 µM.
As to `COC(=O)NCCC(C(=O)Nc1ccc2[nH]ncc2c1)c1ccc(Cl)c(Cl)c1` (stereo not shown) [Compound I-151], the Ki in assay [1] is 1 to 10 µM.
On the same count and under the same terms, under `NCC(C(=O)Nc1ccc2[nH]ncc2c1)c1cccc(Cl)c1` (stereo not shown) [Compound I-157] stands 1 to 10 µM; under `NCCCNC(C(=O)Nc1ccc2[nH]ncc2c1)c1cccc(Cl)c1` (stereo not shown) [Compound I-60], < 1 µM; under `CCc1n[nH]c2ccc(NC(=O)[C@H](O)c3cccc(Cl)c3)cc12` [Compound I-79], 10 to 20 µM.
`NCCC(C(=O)Nc1ccc2[nH]nc(-c3cccc(OC(F)(F)F)c3)c2c1)c1ccc(Cl)c(Cl)c1` (stereo not shown) [Compound I-256]: in assay [1], the Ki is < 1 µM.
For `CCNCCNC(C(=O)Nc1ccc2[nH]ncc2c1)c1cccc(Cl)c1` (stereo not shown) [Compound I-63], the Ki in assay [1] lay within 1 to 10 µM.
Molecule `CNC(=O)NCCC(C(=O)Nc1ccc2[nH]ncc2c1)c1ccc(Cl)c(Cl)c1` (stereo not shown) [Compound I-152] came in with a Ki in assay [1] of 1 to 10 µM.
On the same count and under the same terms, next, `CNCCNC(C(=O)Nc1ccc2[nH]ncc2c1)c1cccc(Cl)c1` (stereo not shown) [Compound I-61]: < 1 µM.
With `NCCC(C(=O)Nc1ccc2[nH]nc(-c3cccc(C(F)(F)F)c3)c2c1)c1ccc(Cl)c(Cl)c1` (stereo not shown) [Compound I-224], the Ki in assay [1] is < 1 µM.
As for `NC(C(=O)Nc1ccc2[nH]ncc2c1)c1ccc(Cl)cc1` (stereo not shown) [Compound I-50], the Ki in assay [1] was in the range of 1 to 10 µM.
For the molecule `NCC(=O)NC(C(=O)Nc1ccc2[nH]ncc2c1)c1cccc(Cl)c1` (stereo not shown) [Compound I-74, 2-(2-Amino-acetylamino)-2-(3-chloro-phenyl)-N-(1H-indazol-5-yl)-acetamide], the Ki in assay [1] is < 1 µM.
Regarding `Nc1n[nH]c2ccc(NC(=O)Cc3ccc(Cl)c(Cl)c3)cc12` [Compound I-83], in assay [1], the Ki was 1 to 10 µM.
With `CCN(CC)Cc1cccc(C(=O)Nc2n[nH]c3ccc(NC(=O)C(CCN)c4ccc(Cl)c(Cl)c4)cc23)c1` (stereo not shown) [Compound I-216], the Ki in assay [1] was < 1 µM.
As for `NCCC(C(=O)Nc1ccc2[nH]ncc2c1)c1cccc(O)c1` (stereo not shown) [Compound I-115], the Ki in assay [1] was < 1 µM.
Regarding `NCCNC(C(=O)Nc1ccc2[nH]ncc2c1)c1ccc(Cl)cc1` (stereo not shown) [Compound I-70], the Ki in assay [1] is < 1 µM.
With `NCCC(C(=O)Nc1ccc2[nH]nc(NC(=O)c3cccc(CN4CCCCC4)c3)c2c1)c1ccc(Cl)c(Cl)c1` (stereo not shown) [Compound I-214], in assay [1], the Ki is < 1 µM.
In assay [1], `NC(C(=O)Nc1ccc2[nH]ncc2c1)c1ccc2ccccc2c1` (stereo not shown) [Compound I-58] gave a Ki of 1 to 10 µM.
In the case of `NCCC(C(=O)Nc1ccc2[nH]nc(NC(=O)c3cccc(SC(F)F)c3)c2c1)c1ccc(Cl)c(Cl)c1` (stereo not shown) [Compound I-219], the Ki in assay [1] is < 1 µM.
Turning to `CCCNCCCNC(C(=O)Nc1ccc2[nH]ncc2c1)c1cccc(Cl)c1` (stereo not shown) [Compound I-68], the Ki in assay [1] is 1 to 10 µM.
With `NCCC(C(=O)Nc1ccc2[nH]nc(NC(=O)c3cccc(CN4CCOCC4)c3)c2c1)c1ccc(Cl)c(Cl)c1` (stereo not shown) [Compound I-215], the Ki in assay [1] is < 1 µM.
Molecule `O=C(Nc1ccc2[nH]ncc2c1)C(O)c1ccc(Br)cc1` (stereo not shown) [Compound I-37] had a Ki in assay [1] of 10 to 20 µM.
